One series has as its system patients. More on the design: method as in PMID 33293081. Particulars: clinical study; cited from earlier work.
In series [1] the test system is PSMA-negative PC-3 flu tumors. Nature of the series: Therapy study in PC-3 flu tumor-bearing mice. The class given is in vivo, BALB/c nude mice. Particulars: 30 kBq. As to the method: Five days after subcutaneous inoculation of four groups of mice with either PC-3 PIP or PC-3 flu tumor cells on the right shoulder (4 × 10^6 cells in 100 μL HBSS), the mice were intravenously injected with either vehicle only (saline with 0.05% BSA, n = 6 and n = 4, respectively) or with 30 kBq [^225Ac]Ac-SibuDAB (1 nmol per mouse; n = 4 per group) diluted in vehicle (Table 1).
(§1) After administration of the radioligands, the mice were monitored over 8 weeks using the same measures as previously published by Umbricht et al.. The relative body mass was defined as [BMx/BM0], where BMx is the body mass in grams at a given Day x and BM0 is the body mass in grams at Day 0. The tumor dimension was determined by measuring the longest tumor axis (L) and its perpendicular axis (W) with a digital caliper. The tumor volume (V) was calculated according to the equation [V = 0.5 × (LW^2)]. The relative tumor volume was defined as [TVx/TV0], where TVx is the tumor volume in mm^3 at a given Day x, and TV0 is the tumor volume in mm^3 at Day 0. Endpoint criteria that required euthanasia were defined as (i) body mass loss of >15%, (ii) a tumor volume of >800 mm^3, (iii) a combination of body mass loss of >10% and a tumor volume of >700 mm^3 or, (iv) signs of unease and pain or a combination thereof using a scoring system as previously reported. The median survival of mice of each group was assessed with Kaplan–Meier curves. Potential early side effects for mice that survived until study end were determined based on blood chemistry and organ-to-brain mass ratios on Day 56 by comparison to values obtained from an additional group of therapy-naïve mice (n = 4) without tumors but of the same age (Supplementary Material: Section S9).

Another series relates to BALB/c nude mice. Briefly: Comparison of treated (cured) therapy mice with healthy mice at study end. The class given is in vivo. As for the experimental part:
as §1, with “S9). […]” for “S9).”
10. Comparison of [225Ac]Ac-SibuDAB-Treated Mice with Healthy Mice at Study End Purpose: To investigate whether a successful tumor treatment with [225Ac]Ac- […]
compared to treatment-naïve, non-tumor-bearing mice on Day 56.
Methods: In order to assess the tolerability of the treatment, the body mass, the organ masses and organ-to-brain mass ratios as well as blood chemistry of the cured mice were compared to those of healthy, non-tumor-bearing BALB/c nude mice on Day 56.
Results: Survival: Targeted alpha therapy using [225Ac]Ac-SibuDAB was very effec-tive and all mice treated with 5 kBq, 10 kBq or 30 kBq of this radioligand survived until […]
Body Mass: The body mass of mice that were effectively treated with [225Ac]Ac-SibuDAB was in the same range as for healthy, non-tumor-bearing control mice at the end of the study on Day 56 (p>0.05) ( Table S11).

The structures appear in SMILES notation.

For the molecule `O=C([O-])CN1CCN(CC(=O)[O-])CCN(CC(=O)NCC2CCC(C(=O)NC(Cc3ccc4ccccc4c3)C(=O)NCCCCC(NC(=O)NC(CCC(=O)O)C(=O)O)C(=O)O)CC2)CCN(CC(=O)[O-])CC1.[225Ac+3]` (stereo not drawn) [[^225Ac]Ac-PSMA-617], the “patients with hematotoxicity up to Grade 3/4” value in the series with patients is on record as “about 30%”.

With `CC(C)Cc1ccc(C(C)C(=O)NC(CCN)C(=O)NCCCCC(NC(=O)CN2CCN(CC(=O)[O-])CCN(CC(=O)[O-])CCN(CC(=O)[O-])CC2)C(=O)NCC2CCC(C(=O)NC(Cc3ccc4ccccc4c3)C(=O)NCCCCC(NC(=O)NC(CCC(=O)O)C(=O)O)C(=O)O)CC2)cc1.[225Ac+3]` (stereo not drawn) [[^225Ac]Ac-SibuDAB], in series [1], the “Day of first endpoint” value was 18, the “Day of last endpoint” value is given as 27, the “Median Survival” value is 25 days and the “Number of Mice Alive on Day 56” value was 0/4. The Tumor growth delay entry in series [1] is “not significantly delay the growth”. Also, in the series on BALB/c nude mice (Day 56, 5 kBq), the ALB is reported as 25 ± 2 g/L, the ALP was 93 ± 10 U/L, the BUN came out at 6.4 ± 1.2 mmol/L and the Brain mass was determined as 403 ± 14 mg. In addition, in the series on BALB/c nude mice (Day 56, 5 kBq), the Kidney mass turned out to be 252 ± 15 mg, the Kidney-to-brain mass ratio amounted to 0.63 ± 0.03, the Liver mass was found to be 1079 ± 47 mg and the Liver-to-brain mass ratio turned out to be 2.7 ± 0.1. Also, in the series on BALB/c nude mice (Day 56, 5 kBq), the “RBM (relative body mass)” value was 1.13 ± 0.05, the Spleen mass stood at 113 ± 17 mg, the Spleen-to-brain mass ratio was 0.28 ± 0.04 and the TBIL was 4.0 ± 0.9 µmol/L. Moreover, in the series on BALB/c nude mice (Day 56, 10 kBq), the ALB amounted to 26 ± 2 g/L, the ALP amounted to 85 ± 7 U/L, the BUN is reported as 7.3 ± 0.8 mmol/L and the Brain mass came to 384 ± 18 mg. Besides, in the series with BALB/c nude mice (Day 56, 10 kBq), the Kidney mass was 260 ± 11 mg, the Kidney-to-brain mass ratio is recorded as 0.68 ± 0.04, the Liver mass is 1139 ± 83 mg and the Liver-to-brain mass ratio is reported as 3.0 ± 0.2. Also, in the series with BALB/c nude mice (Day 56, 10 kBq), the “RBM (relative body mass)” value was determined as 1.12 ± 0.03, the Spleen mass is recorded as 116 ± 32 mg, the Spleen-to-brain mass ratio came to 0.31 ± 0.09 and the TBIL was determined as 3.2 ± 0.4 µmol/L. Moreover, in the series with BALB/c nude mice (Day 56, 30 kBq), the ALB amounted to 22 ± 1 g/L, the ALP is reported as 83 ± 2 U/L, the “Adverse events in cured mice compared to healthy mice” value is listed as “No obvious adverse events” and the BUN is recorded as 7.2 ± 0.7 mmol/L. In addition, in the series with BALB/c nude mice (Day 56, 30 kBq), the Brain mass is 408 ± 16 mg, the Kidney mass was determined as 252 ± 24 mg, the Kidney-to-brain mass ratio is reported as 0.62 ± 0.05 and the Liver mass is given as 1096 ± 79 mg. In the series with BALB/c nude mice (Day 56, 30 kBq), the Liver-to-brain mass ratio is given as 2.7 ± 0.2, the “RBM (relative body mass)” value turned out to be 1.11 ± 0.02, the Spleen mass came out at 127 ± 23 mg and the Spleen-to-brain mass ratio is listed as 0.31 ± 0.07. In the series with BALB/c nude mice (Day 56, 30 kBq), the TBIL stood at 4.3 ± 0.5 µmol/L. In addition, in the series on BALB/c nude mice (cured mice, Day 56, range over groups), the Kidney-to-brain mass ratio is given as 0.62–0.68. Further, in the series with BALB/c nude mice (effectively treated PC-3 PIP tumor-bearing mice), the “Tolerability of therapy (body mass increasing over time)” value is “well tolerated”.

Source of the values: paper PMC9688344, “[^225Ac]Ac-SibuDAB for Targeted Alpha Therapy of Prostate Cancer: Preclinical Evaluation and Comparison with [^225Ac]Ac-PSMA-617” (Cancers, 2022).
